Measured values published in US7528169B2, “Substance having antitumor/anti-inflammatory activity” (Riken, priority 2001, dated 2009).

Key:
[1] = test system: MCF-7 cells derived from human mammary cancer; experiment: Inhibitory effect on proliferation of tumor cells (MTT survival rate) under 1% or 20% oxygen; type: cell-based; conditions: 10 to 100 μg/ml, 48 hours, 1% oxygen vs 20% oxygen
Method: MCF-7 cells derived from human mammary cancer were cultured in a RPMI medium (containing 5% bovine fetal serum). The cells were added with RKB-3564S and RKB-3564SAC in a series of dilution, cultured under the condition of 1% oxygen concentration or 20% oxygen concentration for 48 hours, then added with MTT reagent [3-(4,5-dimethyl-thiazol-2-yl)-2,5-diphenyltetrazolium bromide], and further cultured for 2 to 4 hours, and then the absorption at 570 nm was measured to calculate the survival rate.

NF-κB = experiment: Inhibitory effect on NF-κB activation by TPA (luciferase reporter, pGL3-NF1, in COS-7 cells); type: cell-based; conditions: TPA 50 ng/ml, 10 to 100 μg/ml, 24 hours
Method: COS-7 cells maintained in a DMEM medium (containing 5% bovine fetal serum) were transfected with a plasmid (pGL3-NF1) containing 5xNF-κB binding sequence (5′-[…]-3′) (SEQ ID NO: 1) located upstream of the luciferase gene. The cells were added with TPA (50 ng/ml) and RKB-3564S and RKB-3564SAC in a series of dilution, and cultured for 24 hours, and then the activity of produced luciferase was measured to calculate the inhibitory effect on NF-κB activation by TPA.

[2] = Solubility (physico-chemical properties); type: physicochemical
Method: The physico-chemical properties of […] are shown below. • Appearance: colorless powdery crystals • Melting point: 71.5-72° C. (dec.) • Molecular formula: C10H12O2 • High-resolution mass spectrum (HR-RABMS): (M+H)^+Found (m/z): 165.0868 Calcd. […] Insoluble in n-hexane.

C/C=C/c1cccc(OC(C)=O)c1COC(C)=O [RKB-3564SAC]
inhibition of cell proliferation under 1% oxygen compared to 20% oxygen [1]: significantly inhibited cell proliferation
inhibition of transcription activation by NF-κB (NF-κB): inhibited transcription activation by NF-κB

C/C=C/c1cccc(O)c1CO [RKB-3564S]
inhibition of cell proliferation under 1% oxygen compared to 20% oxygen [1]: significantly inhibited cell proliferation
inhibition of transcription activation by NF-κB (NF-κB): inhibited transcription activation by NF-κB
Solubility in methanol or dimethyl sulfoxide ([2]; methanol or dimethyl sulfoxide): easily soluble
Solubility in n-hexane ([2]; n-hexane): Insoluble
